From ChEMBL document CHEMBL1158459, “Discovery of a peroxisome proliferator activated receptor gamma (PPARgamma) modulator with balanced PPARalpha activity for the treatment of type 2 diabetes and dyslipidemia” (J Med Chem, 2009)
Active and inactive are the calls of the source. The rule behind the calls is not given here.

Tests used:
Rattus norvegicus [1] = test: Toxicity in Sprague-Dawley rat assessed as increase in brown adipose tissue weight at 60 mg/kg, po once daily for 14 days; assay type: organism-based; set-up: dose 60 mg/kg, route oral; details: in vivo, 336 h
Rattus norvegicus [2] = test: Antidiabetic activity in Zucker fa/fa rat assessed as decrease in free fatty acid levels at 0.03 mg/kg, po once daily for 7 days; assay type: functional, organism-based; set-up: dose 0.03 mg/kg
Rattus norvegicus [3] = test: Toxicity in Zucker fa/fa rat assessed as increase in heart weight at 10 mg/kg, po treated once daily for 7 days; assay type: organism-based; set-up: dose 10 mg/kg, route oral; details: in vivo, 168 h
[4] = AUC in high fat diet-fed streptozotocin-treated mouse at 5 mg/kg, po once daily for 12 days; assay type: ADME, organism-based; set-up: dose 5 mg/kg, route oral; details: plasma
Rattus norvegicus [5] = test: Antidiabetic activity in Zucker fa/fa rat assessed as decrease in free fatty acid levels at 1 mg/kg, po once daily for 7 days; assay type: functional, organism-based; set-up: dose 1 mg/kg
Cytochrome P450 2C9 = Cytochrome P450 2C9 (Homo sapiens, UniProt P11712); test: Inhibition of CYP2C9; assay type: ADME
Sequence of Cytochrome P450 2C9 (P11712 whole entry): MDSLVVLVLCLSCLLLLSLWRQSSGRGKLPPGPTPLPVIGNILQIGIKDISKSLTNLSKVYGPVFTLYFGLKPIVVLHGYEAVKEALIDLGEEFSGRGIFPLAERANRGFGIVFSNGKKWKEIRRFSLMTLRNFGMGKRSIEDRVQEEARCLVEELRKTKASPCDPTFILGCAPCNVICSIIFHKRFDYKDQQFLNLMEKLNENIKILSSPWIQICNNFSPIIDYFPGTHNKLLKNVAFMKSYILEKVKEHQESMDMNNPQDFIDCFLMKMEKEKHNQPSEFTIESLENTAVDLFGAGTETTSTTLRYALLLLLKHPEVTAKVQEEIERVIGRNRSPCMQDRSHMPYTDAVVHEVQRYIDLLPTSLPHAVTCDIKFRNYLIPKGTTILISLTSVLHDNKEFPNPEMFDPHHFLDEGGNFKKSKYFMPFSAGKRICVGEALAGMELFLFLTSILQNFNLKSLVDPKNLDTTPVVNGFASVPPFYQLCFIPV

Syrian golden hamster [6] = test: Antidiabetic activity in Syrian golden hamster assessed as reduction in cholesterol level at 1 mg/kg, po once daily for 9 days relative to control; assay type: functional, Mesocricetus auratus; set-up: scale not given: the % may be the effect or the level left
[7] = target: Nuclear receptor subfamily 1 group I member 2 (Homo sapiens, UniProt O75469); test: Activity at PXR receptor up to 10 uM by transactivation assay
Sequence of Nuclear receptor subfamily 1 group I member 2 (O75469 whole entry): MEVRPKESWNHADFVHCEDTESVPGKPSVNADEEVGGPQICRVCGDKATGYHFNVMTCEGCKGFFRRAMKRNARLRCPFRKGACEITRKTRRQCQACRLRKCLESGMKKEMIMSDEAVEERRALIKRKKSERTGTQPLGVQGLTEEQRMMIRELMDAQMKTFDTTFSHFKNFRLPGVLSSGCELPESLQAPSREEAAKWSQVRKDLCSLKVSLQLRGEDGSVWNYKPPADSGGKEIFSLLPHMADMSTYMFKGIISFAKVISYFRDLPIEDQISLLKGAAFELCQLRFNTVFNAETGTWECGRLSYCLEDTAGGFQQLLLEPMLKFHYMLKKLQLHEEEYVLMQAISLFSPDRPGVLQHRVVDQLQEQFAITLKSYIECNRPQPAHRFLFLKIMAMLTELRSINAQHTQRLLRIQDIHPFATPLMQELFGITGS

[8] = target: Oxysterols receptor LXR-alpha (Homo sapiens) (UniProt Q13133); test: Activity at LXRalpha receptor up to 10 uM by transactivation assay
Sequence of Oxysterols receptor LXR-alpha (Homo sapiens) (Q13133 whole entry): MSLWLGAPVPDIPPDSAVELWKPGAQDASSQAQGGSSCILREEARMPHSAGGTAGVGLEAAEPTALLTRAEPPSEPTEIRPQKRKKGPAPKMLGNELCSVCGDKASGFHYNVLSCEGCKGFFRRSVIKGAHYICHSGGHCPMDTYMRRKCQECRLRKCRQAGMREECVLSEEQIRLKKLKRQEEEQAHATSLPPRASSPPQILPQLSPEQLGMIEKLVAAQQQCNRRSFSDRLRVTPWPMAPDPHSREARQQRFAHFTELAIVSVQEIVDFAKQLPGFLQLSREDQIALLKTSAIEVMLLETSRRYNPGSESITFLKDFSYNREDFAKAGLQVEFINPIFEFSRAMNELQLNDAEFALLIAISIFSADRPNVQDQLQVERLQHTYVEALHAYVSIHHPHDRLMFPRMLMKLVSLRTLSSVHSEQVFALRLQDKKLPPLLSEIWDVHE

Rattus norvegicus [9] = test: Toxicity in Sprague-Dawley rat assessed as increase bilirubin levels at 60 mg/kg, po once daily for 14 days; assay type: organism-based; set-up: dose 60 mg/kg, route oral; details: in vivo, 336 h
Cytochrome P450 1A2 = Cytochrome P450 1A2 (Homo sapiens, UniProt P05177); test: Inhibition of CYP1A2; assay type: ADME
Sequence of Cytochrome P450 1A2 (P05177 whole entry): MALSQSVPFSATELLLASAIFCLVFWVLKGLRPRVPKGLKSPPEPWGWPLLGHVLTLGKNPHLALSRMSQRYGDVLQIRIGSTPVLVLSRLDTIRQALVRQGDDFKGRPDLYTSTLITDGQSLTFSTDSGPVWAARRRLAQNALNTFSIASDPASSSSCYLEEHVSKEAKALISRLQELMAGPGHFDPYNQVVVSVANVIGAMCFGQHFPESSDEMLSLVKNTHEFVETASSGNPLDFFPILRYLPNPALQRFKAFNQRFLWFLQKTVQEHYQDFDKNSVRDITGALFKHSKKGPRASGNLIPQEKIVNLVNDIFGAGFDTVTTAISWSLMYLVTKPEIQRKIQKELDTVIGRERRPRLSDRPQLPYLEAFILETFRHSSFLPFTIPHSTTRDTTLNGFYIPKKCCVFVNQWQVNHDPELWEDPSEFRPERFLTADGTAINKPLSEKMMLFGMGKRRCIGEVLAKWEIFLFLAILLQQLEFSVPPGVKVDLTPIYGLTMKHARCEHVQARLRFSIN

[10] = target: Retinoic acid receptor RXR-alpha (Homo sapiens) (UniProt P19793); test: Binding affinity to RXRalpha up to 10 uM
Sequence of Retinoic acid receptor RXR-alpha (Homo sapiens) (P19793 whole entry): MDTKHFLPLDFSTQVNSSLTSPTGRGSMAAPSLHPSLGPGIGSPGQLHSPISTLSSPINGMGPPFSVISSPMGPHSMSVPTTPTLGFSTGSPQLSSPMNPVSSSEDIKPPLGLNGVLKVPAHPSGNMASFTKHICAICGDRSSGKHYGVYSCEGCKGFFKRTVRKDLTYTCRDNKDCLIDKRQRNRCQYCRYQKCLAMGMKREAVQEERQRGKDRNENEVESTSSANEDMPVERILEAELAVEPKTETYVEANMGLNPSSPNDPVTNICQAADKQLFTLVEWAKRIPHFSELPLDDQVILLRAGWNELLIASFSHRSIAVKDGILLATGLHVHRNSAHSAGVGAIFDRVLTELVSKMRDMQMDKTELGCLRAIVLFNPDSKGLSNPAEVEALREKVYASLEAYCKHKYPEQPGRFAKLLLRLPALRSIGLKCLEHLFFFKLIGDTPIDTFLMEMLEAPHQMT

[11] = AUC in Beagle dog at 1 mg/kg, po once daily for 14 days; assay type: ADME, organism-based, Canis lupus familiaris; set-up: dose 1 mg/kg, route oral; details: plasma
[12] = AUC in C57BLKS/J-m+/+Leprdb db/db mouse at 1 mg/kg, po once daily for 11 days; assay type: ADME, organism-based; set-up: dose 1 mg/kg, route oral; details: plasma
Rattus norvegicus [13] = test: Antidiabetic activity in Zucker fa/fa rat assessed as decrease in free fatty acid levels at 0.3 mg/kg, po once daily for 7 days; assay type: functional, organism-based; set-up: dose 0.3 mg/kg
[14] = target: T1, Peroxisome proliferator-activated receptor gamma (Homo sapiens, UniProt P37231)
T1 sequence (P37231 whole entry): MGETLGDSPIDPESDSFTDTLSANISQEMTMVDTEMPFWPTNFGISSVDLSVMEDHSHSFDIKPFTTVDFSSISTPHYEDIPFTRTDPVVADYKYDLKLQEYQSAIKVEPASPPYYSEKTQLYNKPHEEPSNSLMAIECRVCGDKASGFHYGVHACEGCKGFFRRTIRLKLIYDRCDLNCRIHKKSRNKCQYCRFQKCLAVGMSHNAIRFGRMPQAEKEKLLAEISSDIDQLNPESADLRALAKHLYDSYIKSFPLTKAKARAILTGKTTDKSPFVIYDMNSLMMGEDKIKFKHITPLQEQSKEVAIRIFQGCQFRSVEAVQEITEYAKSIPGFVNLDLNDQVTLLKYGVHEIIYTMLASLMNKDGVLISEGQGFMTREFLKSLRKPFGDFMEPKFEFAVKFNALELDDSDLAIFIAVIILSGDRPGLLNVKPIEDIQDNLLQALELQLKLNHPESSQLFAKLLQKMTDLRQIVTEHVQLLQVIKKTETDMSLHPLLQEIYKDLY
Description: Inhibition of human PPARgamma receptor by scintillation proximity assay

Mus musculus = test: Antidiabetic activity in ob/ob mouse assessed as reduction in plasma glucose levels at 10 mg/kg, po once daily for 5 days relative to control; assay type: functional; set-up: scale not given: the % may be the effect or the level left
[15] = target: T2, Peroxisome proliferator-activated receptor alpha (Homo sapiens, UniProt Q07869); test: Inhibition of human PPARalpha receptor by scintillation proximity assay
T2 sequence (Q07869 whole entry): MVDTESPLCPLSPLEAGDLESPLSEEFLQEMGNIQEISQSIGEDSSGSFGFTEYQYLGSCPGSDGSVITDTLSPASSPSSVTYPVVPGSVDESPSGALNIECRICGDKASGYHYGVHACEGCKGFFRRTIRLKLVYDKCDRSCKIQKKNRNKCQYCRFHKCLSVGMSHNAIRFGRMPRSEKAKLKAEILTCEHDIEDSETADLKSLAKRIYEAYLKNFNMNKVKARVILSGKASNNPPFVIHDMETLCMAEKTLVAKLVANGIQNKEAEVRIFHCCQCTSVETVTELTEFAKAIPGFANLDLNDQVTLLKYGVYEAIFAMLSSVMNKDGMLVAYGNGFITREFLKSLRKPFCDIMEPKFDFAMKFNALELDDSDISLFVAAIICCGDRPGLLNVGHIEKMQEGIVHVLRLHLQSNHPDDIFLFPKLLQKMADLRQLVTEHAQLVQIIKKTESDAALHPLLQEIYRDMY

[16] = AUC in Syrian golden hamster at 1 mg/kg, po once daily for 9 days; assay type: ADME, organism-based, Mesocricetus auratus; set-up: dose 1 mg/kg, route oral; details: plasma
[17] = Cmax in Syrian golden hamster at 0.3 mg/kg, po once daily for 9 days; assay type: ADME, organism-based, Mesocricetus auratus; set-up: dose 0.3 mg/kg, route oral; details: in vivo
[18] = target: Oxysterols receptor LXR-alpha (Homo sapiens) (UniProt Q13133); test: Binding affinity to LXRalpha up to 10 uM
[19] = Agonist activity at hamster PPARalpha receptor; assay type: functional, Cricetinae
Rattus norvegicus [20] = test: Antidiabetic activity in Zucker fa/fa rat assessed as decrease in triglyceride levels at 1 mg/kg, po once daily for 7 days; assay type: functional, organism-based; set-up: dose 1 mg/kg
Syrian golden hamster [21] = test: Antidiabetic activity in Syrian golden hamster assessed as reduction in triglyceride level at 3 mg/kg, po once daily for 9 days relative to control; assay type: functional, Mesocricetus auratus; set-up: scale not given: the % may be the effect or the level left
Rattus norvegicus [22] = test: Toxicity in Sprague-Dawley rat assessed as increase in liver weight at 60 mg/kg, po once daily for 14 days; assay type: organism-based; set-up: dose 60 mg/kg, route oral; details: in vivo, 336 h
Rattus norvegicus [23] = test: Toxicity in Zucker fa/fa rat assessed as increase in plasma volume at 15 mg/kg, po treated once daily for 7 days; assay type: organism-based; set-up: dose 15 mg/kg, route oral; details: in vivo, 168 h
Rattus norvegicus [24] = test: Toxicity in Sprague-Dawley rat assessed as increase albumin/globulin levels at 60 mg/kg, po once daily for 14 days; assay type: organism-based; set-up: dose 60 mg/kg, route oral; details: in vivo, 336 h
[25] = Cmax in C57BLKS/J-m+/+Leprdb db/db mouse at 10 mg/kg, po once daily for 11 days; assay type: ADME, organism-based; set-up: dose 10 mg/kg, route oral; details: in vivo
Rattus norvegicus [26] = test: Toxicity in Zucker fa/fa rat assessed as increase in plasma volume at 10 mg/kg, po treated once daily for 7 days; details: in vivo, 168 h
[27] = target: Glucocorticoid receptor (Homo sapiens) (UniProt P04150); test: Binding affinity to GR up to 10 uM
Sequence of Glucocorticoid receptor (Homo sapiens) (P04150 whole entry): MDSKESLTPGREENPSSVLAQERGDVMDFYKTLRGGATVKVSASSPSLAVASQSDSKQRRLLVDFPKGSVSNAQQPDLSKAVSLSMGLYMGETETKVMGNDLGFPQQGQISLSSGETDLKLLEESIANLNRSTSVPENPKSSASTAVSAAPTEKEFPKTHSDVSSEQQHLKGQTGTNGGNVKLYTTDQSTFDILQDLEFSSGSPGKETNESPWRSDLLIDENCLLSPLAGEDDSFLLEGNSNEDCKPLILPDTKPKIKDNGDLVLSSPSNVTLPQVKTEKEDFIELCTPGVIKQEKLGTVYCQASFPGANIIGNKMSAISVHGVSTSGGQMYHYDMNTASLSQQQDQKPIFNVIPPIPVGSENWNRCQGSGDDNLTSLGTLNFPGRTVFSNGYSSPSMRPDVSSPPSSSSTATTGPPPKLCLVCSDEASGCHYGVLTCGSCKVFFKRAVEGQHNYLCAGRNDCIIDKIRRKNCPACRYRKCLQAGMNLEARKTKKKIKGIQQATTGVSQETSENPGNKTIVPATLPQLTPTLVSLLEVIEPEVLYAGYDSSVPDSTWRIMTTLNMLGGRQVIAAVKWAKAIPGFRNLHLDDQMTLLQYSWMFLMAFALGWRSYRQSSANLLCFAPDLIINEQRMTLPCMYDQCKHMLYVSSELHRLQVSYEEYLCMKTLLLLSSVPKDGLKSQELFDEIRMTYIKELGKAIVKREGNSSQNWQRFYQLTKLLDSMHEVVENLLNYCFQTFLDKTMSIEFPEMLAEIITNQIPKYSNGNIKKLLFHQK

Rattus norvegicus [28] = test: Antidiabetic activity in Zucker fa/fa rat assessed as decrease in triglyceride levels at 3 mg/kg, po once daily for 7 days; assay type: functional, organism-based; set-up: dose 3 mg/kg
[29] = target: Estrogen receptor (Homo sapiens) (UniProt P03372); test: Binding affinity to ERalpha up to 10 uM
Sequence of Estrogen receptor (Homo sapiens) (P03372 whole entry): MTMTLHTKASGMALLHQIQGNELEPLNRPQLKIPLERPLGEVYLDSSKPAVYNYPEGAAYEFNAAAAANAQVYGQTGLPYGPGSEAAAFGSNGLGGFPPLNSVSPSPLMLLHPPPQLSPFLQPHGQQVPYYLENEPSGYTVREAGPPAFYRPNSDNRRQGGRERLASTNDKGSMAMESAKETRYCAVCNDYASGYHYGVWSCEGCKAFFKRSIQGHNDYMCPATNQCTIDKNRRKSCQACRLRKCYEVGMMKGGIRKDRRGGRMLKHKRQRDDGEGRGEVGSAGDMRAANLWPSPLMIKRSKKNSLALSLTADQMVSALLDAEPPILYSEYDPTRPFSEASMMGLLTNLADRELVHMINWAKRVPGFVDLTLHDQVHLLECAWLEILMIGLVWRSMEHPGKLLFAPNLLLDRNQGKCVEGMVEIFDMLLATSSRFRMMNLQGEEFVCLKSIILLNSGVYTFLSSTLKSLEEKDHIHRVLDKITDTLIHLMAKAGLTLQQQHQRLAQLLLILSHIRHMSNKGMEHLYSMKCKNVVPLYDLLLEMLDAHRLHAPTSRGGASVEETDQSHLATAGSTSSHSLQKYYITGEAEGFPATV

CC[C@@H](Oc1cccc(Cn2c(C)c(C(=O)c3ccc(Cl)cc3)c3ccc(OC(F)(F)F)cc32)c1)C(=O)O
Activity (Rattus norvegicus [1]): 32%
Activity (Rattus norvegicus [2]): Active
Activity (Rattus norvegicus [3]): Toxic
AUC at 288 h [4]: 2.7 µM·h
Activity (Rattus norvegicus [5]): Active
IC50 (Cytochrome P450 2C9): 10000 nM
Activity (Syrian golden hamster [6]): 33.9%
Activity [7]: Not Active
Activity [8]: inactive
Activity (Rattus norvegicus [9]): 48%
IC50 (Cytochrome P450 1A2): 40000 nM
Activity [10]: inactive
AUC at 336 h [11]: 5.41 µM·h
AUC at 264 h [12]: 1.9 µM·h
Activity (Rattus norvegicus [13]): Active
IC50 [14]: 9 nM
Activity (Mus musculus): 34%
IC50 [15]: 2620 nM
AUC at 216 h [16]: 0.55 µM·h
Cmax [17]: 0.02 µM
Activity [18]: inactive
EC50 [19]: 0.46 nM
Activity (Rattus norvegicus [20]): Active
Activity (Syrian golden hamster [21]): 56.9%
Activity (Rattus norvegicus [22]): 127%
Activity (Rattus norvegicus [23]): Non-toxic
Activity (Rattus norvegicus [24]): 45%
Cmax [25]: 9.6 µM
Activity (Rattus norvegicus [26]): Toxic
Activity [27]: inactive
Activity (Rattus norvegicus [28]): Active
Activity [29]: inactive
